# Experimental data as given in patent US20230301893A1, “Hair Growth and Scalp Preparations” (priority 2020, published 2023).
# No end group written: not given here.
# Experiments:
# [1] = tested on: normal human vascular endothelial cells (NHVEC); assay: Boyden chamber migration assay; type: cell-based; details: for cell migration over migration in the presence of media alone / migration response compared to three positive controls (VEGF, PDGF, FGF): 100 ng/ml; for Cell Number per HPF, Chamber 1 / Cell Number per HPF, Chamber 2 / Cell Number per HPF, Chamber 3 / Cell Number per HPF, Mean: 5×10^4 cells per well
# Protocol: The effects of TB4 and TA1 on endothelial cell migration were determined. To investigate the possibility that these peptides effect the migration of normal human vascular endothelial cells (NHVEC) in vitro, a Boyden chamber migration assay was performed.
# In the experiments of Table 1 and FIG. 1, normal human microvesicular endothelial cells are used at 5×10^4 cells per well. The wells are coated with 100 µg/ml […] Type IV.
# [2] = Isoelectric point of the peptide; type: physicochemical
# [3] = tested on: endothelial cells; assay: MTT (tetrazolium) endothelial cell proliferation assay; type: cell-based; details: 10 ng/ml; 4 hours and 24 hours tested
# Protocol: The effects of TB4 and TA1 on endothelial cell proliferation were determined using a MTT (tetrazolium) assay. The results are shown in FIG. 2 for 4 hours and 24 hours and for three concentrations of these peptides, 10 ng/ml, 100 ng/ml, and 1000 ng/ml. […] At a concentration of 10 ng/ml, TB4 and TA1 maximally stimulated cell proliferation approximately 2-fold and 3-fold over that of the control, respectively.
substance,measurement,setting,value
Ac-ANKGQAPGEAMKPSFLKEKKEVVERSKEEEGPAKMNLVIEMPKD (Ac-ANKGQAPGEAMKPSFLKEKKEVVERSKEEEGPAKMNLVIEMPKD) [TB4],cell migration over migration in the presence of media alone,[1],significantly enhanced
same,"migration response compared to three positive controls (VEGF, PDGF, FGF)",[1],heightened responses
"Ac-SDAAVDTSSEITTKDLKEKKEVVEEAEN (Ac-SDAAVDTSSEITTKDLKEKKEVVEEAEN) [TA1, may be derived by cleavage of thymosin]",isoelectric point,[2],4.1
same,maximal stimulation of cell proliferation over that of the control,[3],~3 fold
same,"Cell Number per HPF, Chamber 1",[1]; 0.1 µg/ml,38 per HPF
same,"Cell Number per HPF, Chamber 2",[1]; 0.1 µg/ml,45 per HPF
same,"Cell Number per HPF, Chamber 3",[1]; 0.1 µg/ml,33 per HPF
same,"Cell Number per HPF, Mean",[1]; 0.1 µg/ml,39 per HPF
same,cell migration over migration in the presence of media alone,[1],significantly enhanced
same,"migration response compared to three positive controls (VEGF, PDGF, FGF)",[1],heightened responses
same,"Cell Number per HPF, Chamber 1",[1]; 0.5 µg/ml,52 per HPF
same,"Cell Number per HPF, Chamber 2",[1]; 0.5 µg/ml,53 per HPF
same,"Cell Number per HPF, Chamber 3",[1]; 0.5 µg/ml,57 per HPF
same,"Cell Number per HPF, Mean",[1]; 0.5 µg/ml,54 per HPF
same,"Cell Number per HPF, Chamber 1",[1]; 1 µg/ml,64 per HPF
same,"Cell Number per HPF, Chamber 2",[1]; 1 µg/ml,69 per HPF
same,"Cell Number per HPF, Chamber 3",[1]; 1 µg/ml,43 per HPF
same,"Cell Number per HPF, Mean",[1]; 1 µg/ml,59 per HPF
same,"Cell Number per HPF, Chamber 1",[1]; 5 µg/ml,35 per HPF
same,"Cell Number per HPF, Chamber 2",[1]; 5 µg/ml,64 per HPF
same,"Cell Number per HPF, Chamber 3",[1]; 5 µg/ml,72 per HPF
same,"Cell Number per HPF, Mean",[1]; 5 µg/ml,57 per HPF
same,"Cell Number per HPF, Chamber 1",[1]; 10 µg/ml,51 per HPF
same,"Cell Number per HPF, Chamber 2",[1]; 10 µg/ml,55 per HPF
same,"Cell Number per HPF, Chamber 3",[1]; 10 µg/ml,66 per HPF
same,"Cell Number per HPF, Mean",[1]; 10 µg/ml,57 per HPF
same,concentration of maximal effect on migration,[1]; dose response,100 ng/mL
